From patent US9738786B2, “Dyes for labelling molecular ligands” (ILLUMINA CAMBRIDGE LIMITED, priority 2011, dated 2017)
Values belong to the compound of their own block, whether it stands above or below them.

What was measured:
Format in all cases: physicochemical
[1] = Fluorescence of dye solutions in water
[2] = Stability over time (optical density of solution); conditions: after 14 days
[3] = Photo-stability of dye solutions in water under irradiation
[4] = Absorption spectra of dye solutions in water; conditions: for absorption maximum: in water
[5] = Stability of Dye 5A and 5B versus commercial dyes (FIG. 3)
[6] = Spectral properties of dye 9 (ScanMix)
Experimental: [drawing 69] 3 ml of acetic anhydride and 0.3 g triethylamine were heated 20 minutes at 110° C., acetic anhydride-removed under reduced pressure then the product precipitated with diethyl ether. The product was purified by HPLC. The absorption maximum of equimolar solutions in ScanMix of new dye 9 was 536 nm, 0.162 a.u.
A mixture of 0.39 g (1 mmol) of 4-ethyl-2-(2-anilino)vinyl-oxazolo[4,5-b]pyridinium iodide, 0.35 g (1 mmol) 2,3,3-trimethyl-1-(5-carboxypentyl)-3H-indolium-5-sulfonate, 3 ml of acetic anhydride and 0.13 g of sodium acetate was heated 20 minutes at 110° C. Acetic anhydride was removed under reduced pressure then the product precipitated with diethyl ether. The product was purified by flash column. […] This new dye 9 (max 583 nm, 447 a.u.) has stronger fluorescence compared with DG527 (594 nm, 401 a.u.).

[7] = Self-quenching of fluorescence with increasing dye/protein ratio (FIG. 1); conditions: relative to dye B with six sulfonic groups
[8] = in water, same optical density, excitation at 545 nm
[9] = Table 1, symmetrical dyes, solutions in water

Compound: 1,1,3-trimethyl-3-(3-sulfophenyl)-1H-benzo[e]indolium-disulfonate [CP-13B]
fluorescence in water ([1]; water): strong fluorescence

fluorescence intensity [1, 8]: 422 a.u.
wavelength of fluorescence maximum [1, 8]: 565 nm
optical density remaining [2]: 85%
Compound: CCN1C(=CC=CC2=[N+](CCCCCC(=O)O)c3ccc(S(=O)(=O)O)cc3C2(C)C)C(C)(C)c2cc(S(=O)(=O)[O-])ccc21 [Cy3, reference compound]

remaining initial fluorescence intensity ([3]; solution in water, after 25 days of irradiation): 85%
photostability relative to Alexa 647 ([3]; solutions in water): improved photostability
absorption maximum [4]: 658 nm
Compound: CC1(C)C(/C=C/C(=C/C=C2/N(c3cccc(S(=O)(=O)[O-])c3)c3ccc(S(=O)(=O)[O-])cc3C2(C)C)c2ccc(C(=O)O)cc2)=[N+](c2cccc(S(=O)(=O)[O-])c2)c2ccc(S(=O)(=O)[O-])cc21.[Na+].[Na+].[Na+] [Dye 1]

stability compared with commercial dyes [5]: better stability
fluorescence intensity compared with Dy681 and Dy682 [1]: higher
shift of fluorescence maximum compared with Dy681 and Dy682 [1]: red shifted
absorption maximum [4]: 686 nm
Compound: CC1(C)C(/C=C/C(=C/C=C2/N(c3cccc(S(=O)(=O)O)c3)c3ccc4c(S(=O)(=O)[O-])cc(S(=O)(=O)O)cc4c3C2(C)C)c2ccc(C(=O)O)cc2)=[N+](c2cccc(S(=O)(=O)O)c2)c2ccc3c(S(=O)(=O)O)cc(S(=O)(=O)O)cc3c21 [Dye 5A]

relative fluorescence intensity [1]: higher relative fluorescence intensity
absorption maximum [4]: 673 nm
Compound: CCN1/C(=C/C=C(/C=C/C2=[N+](CC)c3cc(S(=O)(=O)O)c4cc(S(=O)(=O)O)ccc4c3C2(C)C)c2ccc(C(=O)O)cc2)C(C)(C)c2c1cc(S(=O)(=O)[O-])c1cc(S(=O)(=O)O)ccc21 [Dye 6]

fluorescence intensity [6]: 447 a.u.
fluorescence max [6]: 583 nm
absorption maximum ([6]; compared to laser excitation wavelength (532 nm)): about 536 nm
absorbance at absorption maximum ([6]; equimolar solutions in ScanMix): 0.162 a.u.
absorption maximum ([6]; equimolar solutions in ScanMix): 536 nm
Compound: CC[n+]1cccc2oc(/C=C/C=C/C=C3/N(CCCCCC(=O)O)c4ccc(S(=O)(=O)[O-])cc4C3(C)C)nc21 [Dye 9]

absorption maximum [4]: 567 nm
Compound: CC1(C)C(/C=C/C=C2/N(c3cccc(S(=O)(=O)O)c3)c3cc(S(=O)(=O)[O-])c4cc(S(=O)(=O)O)ccc4c3C2(C)C)=[N+](CCCCCC(=O)O)c2ccc(S(=O)(=O)O)cc21 [Example XX]

fluorescence strength relative to Dy681 ([1]; in water): more than 3 times
fluorescence max ([1]; water): 687 nm
absorption maximum [4]: 664 nm
Compound: CC1(C)C(/C=C/C=C/C=C2/N(c3cccc(S(=O)(=O)O)c3)c3cc(S(=O)(=O)[O-])c4cc(S(=O)(=O)O)ccc4c3C2(C)C)=[N+](CCCCCC(=O)O)c2ccc(S(=O)(=O)O)cc21 [NR665]

Fluorescence intensity, % ([1]; Table 1, symmetrical dyes in water, S0 (2) = 100): 100%
Fluorescence max, nm [1, 9]: 674 nm
Absorption max, nm [4, 9]: 649 nm
Compound: CC1(C)C(/C=C/C=C/C=C2/N(c3ccccc3)c3ccccc3C2(C)C)=[N+](c2ccccc2)c2ccccc21 [S0 (2), reference compound]

self-quenching with increasing dye concentration [7]: more readily self-quenched
Compound: CC[N+]1=C(/C=C/C=C/C=C2/N(CCCCCC(=O)O)c3ccc(S(=O)(=O)O)cc3C2(C)C)C(C)(C)c2cc(S(=O)(=O)[O-])ccc21 [dye A]
